According to PubChem BioAssay (NCI):
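Protocol summary: plate cells (96-well), add compound at 5 concentrations, incubate 48 h, interpolate endpoints linearly. Abbreviation: GI50, concentration required for 50% inhibition of growth. TGI is the concentration that stops growth completely.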

Tests used:
Assay in all cases: NCI tumour cell line growth inhibition, 48 h
[1] = system: U251 CNS
[2] = system: A498 renal
[3] = system: SF-268 CNS
[4] = system: CCRF-CEM leukemia
[5] = system: K-562 leukemia
[6] = system: NCI-H460 lung
[7] = system: HOP-62 NSCLC
[8] = system: OVCAR-4 ovarian
[9] = system: SK-MEL-2 melanoma
[10] = system: NCI/ADR-RES ovarian

Row | SMILES | GI50 [1] | TGI [1] | GI50 [2] | TGI [2] | GI50 [3] | TGI [3] | GI50 [4] | TGI [4] | GI50 [5] | TGI [5] | GI50 [6] | TGI [6] | GI50 [7] | TGI [7] | GI50 [8] | TGI [8] | GI50 [9] | TGI [9] | GI50 [10] | TGI [10]
1 | CCCCCCCCCCCCOC1C(C(COC2OC(C3COC(C)(C)O3)C3OC(C)(C)OC23)NC(=O)NS(=O)(=O)c2ccccc2)OC2OC(C)(C)OC21 (stereo not given) | 3.14 µM | 9.77 µM | 3.87 µM | 11.9 µM | 4.34 µM | 19.6 µM | 2.34 µM | 7.49 µM | 2.57 µM | 16.1 µM | 3.04 µM | 12.6 µM | 4.34 µM | 14.5 µM | 8.23 µM | 66.5 µM | 3.29 µM | 9.57 µM | 7.18 µM | 23.6 µM
2 | COc1ccc(/C=C(\C#N)n2nnc3ccccc32)cc1 | 0.414 µM | > 32.6 µM | 0.188 µM | 0.779 µM | 2.42 µM | > 100 µM | 0.295 µM | > 100 µM | 0.043 µM | > 100 µM | 0.322 µM | 7.88 µM | 0.486 µM | 25.8 µM | 0.615 µM | > 82.5 µM | 0.437 µM | 51.1 µM | 0.0604 µM | 28.2 µM
3 | FC(F)(F)c1ccc(C#Cc2ccccc2C#Cc2ccccc2)cc1 | 27.6 µM | 81.2 µM | 29.3 µM | 83.4 µM | 42.9 µM | > 100 µM | 26 µM | 61.6 µM | 34.2 µM | 89.5 µM | 41.1 µM | > 100 µM | 52.5 µM | > 100 µM | 57.5 µM | > 100 µM | 29.2 µM | 80 µM | 62.8 µM | > 100 µM
4 | COc1ccc(S(=O)(=O)Nc2cc(/C=C\c3cc(OC)c(OC)c(OC)c3)ccc2OC)cc1 | 0.108 µM | > 100 µM | 0.0357 µM | 0.382 µM | 0.401 µM | > 100 µM | 0.176 µM | > 100 µM | 0.053 µM | > 100 µM | 0.178 µM | 11.7 µM | 0.041 µM | > 100 µM | 0.581 µM | > 100 µM | 0.0803 µM | 93 µM | 0.0711 µM | 30.8 µM
5 | COC(=O)C1CCCN1C(=O)[C@@H]1CCCN1C(=O)[C@H](Cc1c[nH]c2ccccc12)NC(=S)Nc1cc(C(F)(F)F)cc(C(F)(F)F)c1 (stereo not given in full) | 1.67 µM | 3.81 µM | 2.15 µM | 6.65 µM | 3.46 µM | 13.6 µM | 2.75 µM | 8.55 µM | 2.92 µM | 13.3 µM | 1.94 µM | 3.79 µM | 2.17 µM | 6.5 µM | 3.18 µM | 11.2 µM | 2.24 µM | 4.25 µM | 3.85 µM | 22.1 µM
6 | Cc1cc(=O)[nH]c2cc3c(c4c(n3Cc3ccc(Cl)cc3Cl)CC(C)(C)CC4=O)c(O)c12 | 62.6 µM | > 100 µM | > 100 µM | > 100 µM | 76.1 µM | > 100 µM | 82.3 µM | > 100 µM | > 100 µM | > 100 µM | 79.5 µM | > 100 µM | 77.7 µM | > 100 µM | > 100 µM | > 100 µM | > 100 µM | > 100 µM | > 100 µM | > 100 µM
7 | Cc1cc(NCc2cc(Nc3ccnc4cc(Cl)ccc34)ccc2F)nc(N2CCN(C)CC2)n1 | 1.78 µM | 4.46 µM | 1.54 µM | 3.22 µM | 1.81 µM | 4.53 µM | 1.12 µM | 7.6 µM | 0.386 µM | 2.11 µM | 1.5 µM | 3.31 µM | 1.62 µM | 4.79 µM | 1.56 µM | 8.57 µM | 2.03 µM | 3.93 µM | 2.36 µM | 7.72 µM
8 | C=C(C)[C@@H]1CC[C@]2(C)[C@H](CC=C3[C@@H]4[C@@H](C)[C@H](C)CC[C@]4(C(N)=O)CC[C@]32C)[C@@]1(C)CCC#N | 4.32 µM | 18.3 µM | 11 µM | 44.5 µM | 4.52 µM | > 100 µM | 3.73 µM | 45 µM | 3.38 µM | > 100 µM | 8.35 µM | 29.6 µM | 7.71 µM | > 100 µM | 3.74 µM | > 100 µM | 6.98 µM | 23.2 µM | 4 µM | 17.2 µM
